Experimental data published in patent US20020106416A1, “Composition for inhibition of H. influenzae and treatment of otitis media and sore throat” (priority 1996, published 2002).

Test: Clinical evaluation of HHT888-10 in patients with otitis media or sore throat
Assay type: in vivo, human
Conditions: sixth patient; initial treatment with Erythromycin, Bactrium, and Naproxen together
Protocol: The extract powder prepared in Example IB of Pogostemon cablin (HHT888-10) was administered orally to a patient with recurrent otitis media at a dosage of 2 g twice a day ( total 4 gms per day) for 3 days.
A sixth patient was treated for sore throat, headache and fever. […] On the fifth day, the patient was treated with HHT888-10 at 2 g b.i.d. p.o. for 2 days.

Row | Compound | fever and headache | sore throat
1 | CC[C@H]1OC(=O)[C@H](C)[C@@H](O[C@H]2C[C@@](C)(OC)[C@@H](O)[C@H](C)O2)[C@H](C)[C@@H](O[C@@H]2O[C@H](C)C[C@H](N(C)C)[C@H]2O)[C@](C)(O)C[C@@H](C)C(=O)[C@H](C)[C@@H](O)[C@]1(C)O [Erythromycin] | subsided | became worse
2 | COc1ccc2cc([C@H](C)C(=O)O)ccc2c1 [Naproxen] | subsided | became worse
3 | Bactrium | subsided | became worse
